Here are results for three compounds from patent publication US20160058759A1, “GLUTAMINASE INHIBITOR THERAPY” (Board of Regents, The University of Texas System, priority 2014, published 2016).

The test system of assay [1] is NRF2/KEAP1 mutant NSCLC cell lines. Kind of assay: Glutathione level after GLS inhibitors. The class given is cell-based. The procedure:
Cells were allowed to settle and attach overnight. Cells plated in triplicate for each concentration and control examined. […] Cells were incubated with compound or relevant controls for 24 hours. On Day 2, 24 hours after treatment, cells were analyzed by GSH-Glo (PromegaV6912) per manufacturer's instructions. Plates were read in luminescence mode on a PheraStarFS plate reader. Duplicate wells were plated and then stained with crystal violet in order to correct for differences in cell growth as described below.

The test system is the same in assay [2]. Kind of assay: ROS after GLS inhibitors. In kind it is cell-based. On the procedure:
One day prior to the experiment, A549 cells were seeded in 6 well dishes (250,000 cells per well). The day of the experiment, cells were treated with 0.01% DMSO or 1 μM IACS-011393 for 24 hours. The following day, an allocated well was treated with hydrogen peroxide for 20-30 minutes as a positive control for ROS generation. All wells were then stained with CM-H2DCFDA (5 μM, Life Technologies) for 30 minutes at 37° C., washed with 1× PBS, harvested by trypsinization, and re-suspended in 400 μl phenol-free RPMI medium. Cells were strained through a […] cell strainer and analyzed using a flow cytometer (LSR Fortessa).

Turning to `O=C(Cc1ccccc1)Nc1nnc(CCSCCc2nnc(NC(=O)Cc3ccccc3)s2)s1` [BPTES, N,N′-(5,5′-(2,2′-thiobis(ethane-2,1-diyl))bis(1,3,4-thiadiazole-5,2-diyl))bis(2-phenylacetamide)], the glutathione result in assay [1] is on record as “reduction in glutathione”. For the same compound, the ROS entry in assay [2] is reported as “increase in ROS”.

As to `O=C(Cc1ccccn1)Nc1nnc(CCS(=O)(=O)CCc2nnc(NC(=O)Cc3ccccn3)s2)s1` [compound 13, N,N′-(5,5′-(2,2′-sulfonylbis(ethane-2,1-diyl))bis(1,3,4-thiadiazole-5,2-diyl))bis(2-(pyridin-2-yl)acetamide)], the glutathione result in assay [1] was “reduction in glutathione”. For the same compound, the ROS entry in assay [2] is listed as “increase in ROS”.

Take `O=C(Cc1cccc(OC(F)(F)F)c1)Nc1ccc(CCCCc2nnc(NC(=O)Cc3ccccn3)s2)nn1` [CB-839, 2-(pyridin-2-yl)-N-{5-[4-(6-{2-[3-(trifluoromethoxy)phenyl]acetamido}pyridazin-3-yl)butyl]-1,3,4-thiadiazol-2-yl}acetamide]: the glutathione result in assay [1] is given as “reduction in glutathione”. Besides, the ROS entry in assay [2] is “increase in ROS”.
